Columns and labels:
PI3Kγ = target: T1, PI3Kγ (Homo sapiens, UniProt P48736); experiment: PI3Kγ cellular assay in THP-1 cells (AKT pS473 AlphaLISA); format: cell-based; details: Table 1, rhMCP-1 stimulated AKT pS473, read-out: cellular potency (PI3Kγ IC50)
T1 construct: host or cells: THP-1
Summary of the method: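 Endogenous AKT S473 phosphorylation, detected by AlphaLISA in lysates, serves as the PI3Kγ activity read-out in stimulated, serum-starved THP-1 cells (1.8×10^5/well).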

PI3Kγ (p120γ) = target: T2, PI3Kγ (p120γ) (Homo sapiens, UniProt P48736); experiment: Inhibition of PI3K kinase activity (ADP Glo), PI3Kγ; details: Table 1, p120γ, read-out: biochemical potency (PI3Kγ IC50)
T2 construct: purchased Promega V1761
Summary of the method: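 IC50 values come from a 4-parameter nonlinear fit of ADP-Glo luminescence, which measures ADP produced as PIP2 is phosphorylated to PIP3. The p120γ enzyme (2× stock 8 nM) sat with compound 1 h at rt before substrate (2× stocks: 50 μM ATP, 0.1 mg/ml PIP2) was added. Phosphorylation then proceeded 60 min at rt.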

T2 sequence (P48736 whole entry): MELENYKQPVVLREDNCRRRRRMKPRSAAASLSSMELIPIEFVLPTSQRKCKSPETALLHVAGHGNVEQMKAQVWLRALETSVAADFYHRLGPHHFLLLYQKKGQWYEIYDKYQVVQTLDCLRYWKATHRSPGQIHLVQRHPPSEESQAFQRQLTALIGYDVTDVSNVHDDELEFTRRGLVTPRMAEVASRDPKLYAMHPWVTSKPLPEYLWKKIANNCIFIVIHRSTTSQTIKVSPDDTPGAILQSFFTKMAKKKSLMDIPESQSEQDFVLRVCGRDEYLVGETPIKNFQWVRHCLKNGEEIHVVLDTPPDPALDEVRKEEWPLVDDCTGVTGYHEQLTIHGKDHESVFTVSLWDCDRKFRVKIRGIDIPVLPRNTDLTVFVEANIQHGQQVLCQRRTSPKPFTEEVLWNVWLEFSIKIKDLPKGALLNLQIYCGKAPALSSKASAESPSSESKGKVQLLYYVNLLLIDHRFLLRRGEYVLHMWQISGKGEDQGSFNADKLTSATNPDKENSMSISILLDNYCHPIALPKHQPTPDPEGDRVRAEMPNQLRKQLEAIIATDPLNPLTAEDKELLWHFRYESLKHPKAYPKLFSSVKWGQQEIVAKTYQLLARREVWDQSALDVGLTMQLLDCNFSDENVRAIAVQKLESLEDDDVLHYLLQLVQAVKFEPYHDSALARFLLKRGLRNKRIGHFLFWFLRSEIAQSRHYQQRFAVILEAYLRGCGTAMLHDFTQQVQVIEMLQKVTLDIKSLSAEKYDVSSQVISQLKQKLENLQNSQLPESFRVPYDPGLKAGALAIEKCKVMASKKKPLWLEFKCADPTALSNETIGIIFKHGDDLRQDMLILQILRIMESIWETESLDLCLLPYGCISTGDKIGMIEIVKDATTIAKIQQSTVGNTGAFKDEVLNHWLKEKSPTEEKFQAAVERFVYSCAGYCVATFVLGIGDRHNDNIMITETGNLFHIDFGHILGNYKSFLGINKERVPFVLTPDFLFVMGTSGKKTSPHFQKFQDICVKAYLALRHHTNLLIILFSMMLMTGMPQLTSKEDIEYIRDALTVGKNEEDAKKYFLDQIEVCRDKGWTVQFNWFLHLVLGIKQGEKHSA
T1 sequence (P48736 whole entry): as above

IC50 (PI3Kγ) | IC50 (PI3Kγ (p120γ)) | SMILES
< 100 nM | < 100 nM | CC[C@H](N1Cc2cc(-c3ccn4nc(N)c(C(=O)NC5COC5)c4n3)cc(NS(C)(=O)=O)c2C1=O)C(F)(F)F [Example 123, 2-Amino-5-{7-methanesulfonamido-1-oxo-2-[(2S)-1,1,1-trifluorobutan-2-yl]-2,3-dihydro-1H-isoindol-5-yl}-N-(oxetan-3-yl)pyrazolo[1,5-a]pyrimidine-3-carboxamide]
< 100 nM | < 100 nM | CC[C@H](N1Cc2cc(-c3ccn4nc(N)c(C(=O)NC5CC5)c4n3)cc(NS(C)(=O)=O)c2C1=O)C(F)(F)F [Example 124, 2-Amino-N-cyclopropyl-5-{7-methanesulfonamido-1-oxo-2-[(2S)-1,1,1-trifluorobutan-2-yl]-2,3-dihydro-1H-isoindol-5-yl}pyrazolo[1,5-a]pyrimidine-3-carboxamide]
< 100 nM | < 100 nM | CC[C@H](N1Cc2cc(-c3ccn4nc(N)c(C(=O)NC5(C)COC5)c4n3)cc(NS(C)(=O)=O)c2C1=O)C(F)(F)F [Example 125, 2-Amino-5-{7-methanesulfonamido-1-oxo-2-[(2S)-1,1,1-trifluorobutan-2-yl]-2,3-dihydro-1H-isoindol-5-yl}-N-(3-methyloxetan-3-yl)pyrazolo[1,5-a]pyrimidine-3-carboxamide]
< 100 nM | < 100 nM | CC[C@H](N1Cc2cc(-c3ccn4nc(N)c(C(=O)N[C@H]5C[C@H](C(C)(C)O)C5)c4n3)cc(NS(C)(=O)=O)c2C1=O)C(F)(F)F [Example 126, 2-Amino-5-{7-methanesulfonamido-1-oxo-2-[(2S)-1,1,1-trifluorobutan-2-yl]-2,3-dihydro-1H-isoindol-5-yl}-N-[trans-3-(2-hydroxypropan-2-yl)cyclobutyl]pyrazolo[1,5-a]pyrimidine-3-carboxamide]
< 100 nM | < 100 nM | CC[C@H](N1Cc2cc(-c3ccn4nc(N)c(C(=O)N[C@H]5CC[C@](C)(O)CC5)c4n3)cc(NS(C)(=O)=O)c2C1=O)C(F)(F)F [Example 127, 2-Amino-5-{7-methanesulfonamido-1-oxo-2-[(2S)-1,1,1-trifluorobutan-2-yl]-2,3-dihydro-1H-isoindol-5-yl}-N-[trans-4-hydroxy-4-methylcyclohexyl]pyrazolo[1,5-a]pyrimidine-3-carboxamide]
< 100 nM | < 100 nM | CS(=O)(=O)Nc1cc(-c2ccn3nc(N)c(C(=O)NC4CC4)c3n2)cc2c1C(=O)N([C@@H](C1CC1)C(F)(F)F)C2 [Example 128, 2-Amino-N-cyclopropyl-5-{2-[(1S)-1-cyclopropyl-2,2,2-trifluoroethyl]-7-methanesulfonamido-1-oxo-2,3-dihydro-1H-isoindol-5-yl}pyrazolo[1,5-a]pyrimidine-3-carboxamide]
< 100 nM | < 100 nM | CS(=O)(=O)Nc1cc(-c2ccn3nc(N)c(C(=O)NC4CC4)c3n2)cc2c1C(=O)N([C@H](C1CC1)C(F)(F)F)C2 [Example 129, 2-Amino-N-cyclopropyl-5-{2-[(1R)-1-cyclopropyl-2,2,2-trifluoroethyl]-7-methanesulfonamido-1-oxo-2,3-dihydro-1H-isoindol-5-yl}pyrazolo[1,5-a]pyrimidine-3-carboxamide]
< 100 nM | < 100 nM | C[C@@H](C1CC1)N1Cc2cc(-c3ccn4nc(N)c(C(=O)Nc5cnn(C)c5)c4n3)cc(S(C)(=O)=O)c2C1=O [Example 130, 2-Amino-5-{2-[(1S)-1-cyclopropylethyl]-7-methanesulfonyl-1-oxo-2,3-dihydro-1H-isoindol-5-yl}-N-(1-methyl-1H-pyrazol-4-yl)pyrazolo[1,5-a]pyrimidine-3-carboxamide]
< 100 nM | < 100 nM | C[C@@H](C1CC1)N1Cc2cc(-c3ccn4nc(N)c(C(=O)N[C@H]5CC[C@@](C)(O)CC5)c4n3)cc(S(C)(=O)=O)c2C1=O [Example 131, 2-Amino-5-{2-[(1S)-1-cyclopropylethyl]-7-methanesulfonyl-1-oxo-2,3-dihydro-1H-isoindol-5-yl}-N-[cis-4-hydroxy-4-methylcyclohexyl]pyrazolo[1,5-a]pyrimidine-3-carboxamide]
< 100 nM | < 100 nM | C[C@@H](C1CC1)N1Cc2cc(-c3ccn4nc(N)c(C(=O)NC5CC5)c4n3)cc(S(C)(=O)=O)c2C1=O [Example 132, 2-Amino-N-cyclopropyl-5-{2-[(1S)-1-cyclopropylethyl]-7-methanesulfonyl-1-oxo-2,3-dihydro-1H-isoindol-5-yl}pyrazolo[1,5-a]pyrimidine-3-carboxamide]
< 100 nM | < 100 nM | CCS(=O)(=O)c1cc(-c2ccn3nc(N)c(C(=O)NC4CC4)c3n2)cc2c1C(=O)N([C@@H](C)C1CC1)C2 [Example 133, 2-Amino-N-cyclopropyl-5-{2-[(1S)-1-cyclopropylethyl]-7-(ethanesulfonyl)-1-oxo-2,3-dihydro-1H-isoindol-5-yl}pyrazolo[1,5-a]pyrimidine-3-carboxamide]
< 100 nM | < 100 nM | C[C@@H](C1CC1)N1Cc2cc(-c3ccn4nc(N)c(C(=O)NC5CC5)c4n3)cc(S(=O)(=O)CC3CC3)c2C1=O [Example 135, 2-Amino-N-cyclopropyl-5-{2-[(1S)-1-cyclopropylethyl]-7-cyclopropylmethanesulfonyl-1-oxo-2,3-dihydro-1H-isoindol-5-yl}pyrazolo[1,5-a]pyrimidine-3-carboxamide]
< 100 nM | < 100 nM | C[C@@H](C1CC1)N1Cc2cc(-c3ccn4nc(N)c(C(=O)NC5CC5)c4n3)cc(S(=O)(=O)C3CCC3)c2C1=O [Example 136, 2-Amino-5-[7-(cyclobutanesulfonyl)-2-[(1S)-1-cyclopropylethyl]-1-oxo-2,3-dihydro-1H-isoindol-5-yl]-N-cyclopropylpyrazolo[1,5-a]pyrimidine-3-carboxamide]
< 100 nM | < 100 nM | C[C@@H](C1CC1)N1Cc2cc(-c3ccn4nc(N)c(C(=O)NC5CC5)c4n3)cc(S(=O)(=O)C3CCCC3)c2C1=O [Example 137, 2-Amino-5-[7-(cyclopentanesulfonyl)-2-[(1S)-1-cyclopropylethyl]-1-oxo-2,3-dihydro-1H-isoindol-5-yl]-N-cyclopropylpyrazolo[1,5-a]pyrimidine-3-carboxamide]
< 100 nM | < 100 nM | C[C@@H](C1CC1)N1Cc2cc(-c3ccn4nc(N)c(C(=O)NC5CC5)c4n3)cc(S(=O)(=O)C3CCCCC3)c2C1=O [Example 138, 2-Amino-5-[7-(cyclohexanesulfonyl)-2-[(1S)-1-cyclopropylethyl]-1-oxo-2,3-dihydro-1H-isoindol-5-yl]-N-cyclopropylpyrazolo[1,5-a]pyrimidine-3-carboxamide]
< 100 nM | < 100 nM | CNS(=O)(=O)c1cc(-c2ccn3nc(N)c(C(=O)NC4CC4)c3n2)cc2c1C(=O)N([C@@H](C)C(F)(F)F)C2 [Example 139, 2-Amino-N-cyclopropyl-5-[7-(methylsulfamoyl)-1-oxo-2-[(2S)-1,1,1-trifluoropropan-2-yl]-2,3-dihydro-1H-isoindol-5-yl]pyrazolo[1,5-a]pyrimidine-3-carboxamide]
< 100 nM | < 100 nM | CNS(=O)(=O)c1cc(-c2ccn3nc(N)c(C(=O)Nc4cnn(C)c4)c3n2)cc2c1C(=O)N([C@@H](C)C1CC1)C2 [Example 140, 2-Amino-5-{2-[(1S)-1-cyclopropylethyl]-7-(methylsulfamoyl)-1-oxo-2,3-dihydro-1H-isoindol-5-yl}-N-(1-methyl-1H-pyrazol-4-yl)pyrazolo[1,5-a]pyrimidine-3-carboxamide]

From patent US20230024302A1, “2,3,5-TRISUBSTITUTED PYRAZOLO[1,5-A]PYRIMIDINE COMPOUNDS” (Arcus Biosciences, Inc., priority 2019, published 2023)
